The text below walks through data of patent US9464326B2, “Total and phosphorylated IL-1 receptor-associated kinase-1 and IL-1 receptor-associated kinase-4 as a biomarker for cancer progression and chemotherapy resistance” (University of Maryland, Baltimore, priority 2012, dated 2016).

Read-outs that look alike come from different tables or passages of the source.

In one assay the test system is melanoma cells. Briefly: Western blot of phosphorylated NF-KB. In kind it is cell-based, human. The following applies: 48 hrs, vs DMSO, FIG. 7C. The method, then:
FIG. 7. TLR and TLR signaling-related protein expression profiles on melanoma cell lines. (A) The expression levels of TLR1-TLR10 and various TLR-related proteins were examined by Western blot in samples from human melanoma cell lines. (B) The TLR1-TLR2 ligand Pam3CysK4 was added to A375 cells for 48 hrs. Cytokine and chemokine production by was determined using a Milliplex cytokine/chemokine array. (C) IRAK-1,-4 inhibitor or vehicle alone (DMSO) was added to melanoma cells for 48 hrs. The level of phosphorylated and non-phosphorylated p65 subunit of NF-KB was determined by Western blot. (D) Cytokine and chemokine levels in the supernatant A375 cell culture were examined using a Milliplex cytokine/chemokine array 48 hours after adding IRAK-1,-4 inhibitor or DMSO. ANOVA; **P<0.001, *P<0.05.
Total cell extracts were prepared from melanoma cells. […] Melanoma tissue arrays were purchased from US Biomax, Inc (Rockville, Md.). For immunohistochemical staining samples were stained with mouse monoclonal anti-human phosphor-IRAK.-4 antibody (Abnova; dilution, 3.5 μg/ml) or normal mouse serum. […] IHC specimens were analyzed using “quick score” system in which the intensity of the immunohistochemical reaction was scored by multiplying the intensity 1 (weak), 2 (moderate), and 3 (strong) and the proportion of cells staining positively 0 (<10%), 1 (10-25%), 2 (26-50%), 3 (51-75%) or 4 (>75%).

Assay [1] has as its system panel of 27 other kinases. The settings on record: supplier (EMD Millipore) description, cited from earlier work.
The test system of a further assay is A375 cells. Kind of assay: Western blot of IRAK phosphorylation in A375. The following applies: Pam3CysK4 2.5 μg/ml or flagellin 100 ng/ml, 48 hours, FIG. 22B. The class given is cell-based, human. The method, then:
FIG. 22. Effects of TLR stimulation and cytokines on IRAK phosphorylation in melanoma cells. (A) A375 cells were cultured in the presence of anti-IL-18, anti-CXCL-1, (R&D Systems), anti-IL-1 (BioLegend), or mouse IgG (Sigma-Aldrich) all at 10 μg/ml. Forty-eight hours later the levels of the indicated proteins were determined by western blot. (B) A375 cells, which express p-IRAK-1 and p-IRAK-4, and G361 melanoma cells, which express very low levels of p-IRAK-1 (and express TLR5) were cultured in the presence of TLR1-TLR2 agonist (Pam3CysK4; 2.5 μg/ml) or TLR5 (flagellin; 100 ng/ml; InVivogen). Forty-eight hours later total protein was collected and the levels of the indicated proteins were examined by western blot.
Total cell extracts were prepared from melanoma cells. […] Melanoma tissue arrays were purchased from US Biomax, Inc (Rockville, Md.). For immunohistochemical staining samples were stained with mouse monoclonal anti-human phosphor-IRAK.-4 antibody (Abnova; dilution, 3.5 μg/ml) or normal mouse serum. Tissue histology sections (5-μm-thick) were deparaffinized, hydrated, heated in boiling 10 mmol/L sodium citrate (pH 6.0), for antigen retrieval, for 30 min and washed in Tris buffer. Peroxide blocking was done with 3% […] in methanol at room temperature for 15 min, followed by 10% fetal bovine serum in TBS-t for 30 min at room temperature. Primary antibody incubation was done overnight at 4° C. Secondary antibody incubation with horse anti-mouse (1:200; Vector Laboratories, Burlingame, Calif.) was done for 1 hr, followed by application of diaminobenzidine chromogen for 5 min. The slides were then counterstained with hematoxylin and topped with a coverslip. IHC specimens were analyzed using “quick score” system in which the intensity of the immunohistochemical reaction was scored by multiplying the intensity 1 (weak), 2 (moderate), and 3 (strong) and the proportion of cells staining positively 0 (<10%), 1 (10-25%), 2 (26-50%), 3 (51-75%) or 4 (>75%).

The test system of another assay is HH. Briefly: Proliferation (3H-thymidine) of HH. In kind it is cell-based, human. The following applies: 3H-thymidine uptake, 72 h. The text has this:
CCRF-CEM, CEM/C1, CEM/C2, CEM-C7, Jurkat, Loucy, Molt-4, HSB-2, SUP-T1, Hut 78, HH, Hut 102, MO, and H9 T-leukemia and T-lymphoma cell lines were purchased from the American Type Culture Collection (Manassas, Va., USA). All of the cell lines were initially expanded and cryopreserved within one month of receipt. Cells were typically used for 6 months at which time a fresh vial of cryopreserved cells was used. Total T cells from healthy donors were isolated via negative selection followed by positive selection using a CD3+ selection kit (Invitrogen, Carlsbad, Calif.). T cells were isolated from patients with T-ALL bone marrow or peripheral blood samples containing more than 70% leukemia cells using a CD2+ isolation kit (STEMCELL Technologies, Vancouver, Canada). All tissues were collected under institutional IRB-approved protocols and all participants gave written informed assent/consent. For in vitro experiments, T-ALL cells were cultured in AIM-V medium supplemented with 20% human AB serum in the presence of recombinant human stem cell factor (50 ng/mL; Amgen, Thousand Oaks, Calif.), insulin (20 nM; Sigma-Aldrich, St Louis, Mo., USA) and IL-7 (50 ng/mL; R&D Systems, Minneapolis, Minn., USA). […]
Cells were cultured in a 96-well plate (Corning Costar, Corning, N.Y., USA) with various concentrations of TLR ligands 1-9, starting at 10 μg/ml, in a final volume of 200 ul. […] After this time point, cells were harvested with a Packard Filter-Mate-96 cell harvester (Perkin Elmer, Waltham, Mass., USA) and counted on Packard Top Count-NXT (Perkin Elmer, Waltham, Mass., USA). Results were expressed as average counts per minute (cpm). […] Forty-eight hours later, proliferation (±SD) was determined by ^3H-thymidine incorporation. Alternatively, apoptosis was measured by flow cytometry after staining cells with Annexin-V (BD Pharmingen, San Diego, Calif., USA) and propidium iodide (Sigma). Cell number was counted under microscopy by staining cells with trypan blue. […]

In a further assay the test system is CEM-C1. Briefly: Proliferation (3H-thymidine) of CEM-C1. In kind it is cell-based, human. The text has this: CCRF-CEM, CEM/C1, CEM/C2, CEM-C7, Jurkat, Loucy, Molt-4, HSB-2, SUP-T1, Hut 78, HH, Hut 102, MO, and H9 T-leukemia and T-lymphoma cell lines were purchased from the American Type Culture Collection (Manassas, Va., USA). All of the cell lines were initially expanded and cryopreserved within one month of receipt. Cells were typically used for 6 months at which time a fresh vial of cryopreserved cells was used. Total T cells from healthy donors were isolated via negative selection followed by positive selection using a CD3+ selection kit (Invitrogen, Carlsbad, Calif.). T cells were isolated from patients with T-ALL bone marrow or peripheral blood samples containing more than 70% leukemia cells using a CD2+ isolation kit (STEMCELL Technologies, Vancouver, Canada). All tissues were collected under institutional IRB-approved protocols and all participants gave written informed assent/consent. For in vitro experiments, T-ALL cells were cultured in AIM-V medium supplemented with 20% human AB serum in the presence of recombinant human stem cell factor (50 ng/mL; Amgen, Thousand Oaks, Calif.), insulin (20 nM; Sigma-Aldrich, St Louis, Mo., USA) and IL-7 (50 ng/mL; R&D Systems, Minneapolis, Minn., USA). In other experiments, protein lysate was collected using the Full Moon Biosystems (Sunnyvale, Calif., USA) buffer prior to protein examination by western blot or protein array.
Cells were cultured in a 96-well plate (Corning Costar, Corning, N.Y., USA) with various concentrations of TLR ligands 1-9, starting at 10 μg/ml, in a final volume of 200 ul. TLR ligands were diluted 2-fold. Cell lines (25-40×10^3/well) were cultured for 54 hours, whereas fresh patient-derived T-ALL cells (200×10^3/well) were cultured for 30 hours prior to adding [^3H]-thymidine for 18 hours. After this time point, cells were harvested with a Packard Filter-Mate-96 cell harvester (Perkin Elmer, Waltham, Mass., USA) and counted on Packard Top Count-NXT (Perkin Elmer, Waltham, Mass., USA). Results were expressed as average counts per minute (cpm). In some experiments CCRF-CEM cells were pre-treated with TLR1-TLR2 ligand (Pam3CysK4; 2.5 ug/ml) for 48 hrs, washed, and then cultured in the presence of varying concentrations of FBS. Forty-eight hours later, proliferation (±SD) was determined by ^3H-thymidine incorporation. Alternatively, apoptosis was measured by flow cytometry after staining cells with Annexin-V (BD Pharmingen, San Diego, Calif., USA) and propidium iodide (Sigma). Cell number was counted under microscopy by staining cells with trypan blue. […]

Turning to `O=C(Nc1nc2ccccc2n1CCN1CCOCC1)c1cccc([N+](=O)[O-])c1` [IRAK-1,-4 inhibitor], the “phosphorylated NF-KB (p-NF-KB)” value in the assay on melanoma cells is on record as “marked reduction”. The “activity against a panel of 27 other kinases” value is given as “little to no activity” in assay [1] and “little activity” in assay [1] (listed as IRAK.-1,-4 inhibitor).

“tripalmitoyl-S-(bis(palmitoyloxy)propyl)-Cys-Ser-(Lys)3-Lys [Pam3Cysk4]”: in the assay with A375 cells, the “p-IRAK-1 or p-IRAK-4 expression levels” value is “remained unchanged”. Moreover, the “Proliferative effects of TLR ligands” value in the assay with HH is “∘”; in the assay on CEM-C1 (3H-thymidine uptake, 72 h) it was “+ (enhanced proliferation by 25% or greater)”. Besides, the “TLR ligand concentration in parentheses below the symbol” value with CEM-C1 (no unit in table (μg/ml)) is “(2.5)”.
